Experimental data published in patent US20230140290A1, “SALICYLAMIDE DERIVATIVES AND RELATED METHODS OF MAKING” (THE BOARD OF REGENTS OF THE UNIVERSITY OF TEXAS SY, priority 2020, published 2023).

Tests used:
Type in all cases: cell-based, HAdV-5
[1] = tested on: HAdV5-GFP; test: Plaque assay (inhibition of HAdV plaque formation); conditions: for Selectivity index (SI): ratio of CC50 to IC50 in plaque assay; for inhibition at 10 µM: read-out: Plaque Assay (%) Inhibition (10 μM); for IC50: read-out: Plaque Assay IC50 (μM), HAdV5-GFP, low MOI, 293β5 cell line
Outline: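 Cells at 80-90% confluency infected with HAdV5-GFP at 0.06 vp/cell, rocked 2 h at 37° C, then washed with PBS. Compounds tested at 10 μM and in dose-response from 10 to 0.3 μM, included in the post-infection mixture.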

[2] = tested on: HAdV5-GFP; test: Entry assay (HAdV5-mediated GFP expression); conditions: for inhibition at 50 µM: read-out: (%) Inhibition Entry Assay (50 μM)
Outline: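 Human A549 cells (3×10^5/well) infected with HAdV5-GFP at 2000 vp/cell with compounds at 50 μM or in dose-response, in triplicate. Incubation 48 h at 37° C., 5% CO2. Standard infection curve from 2-fold virus dilutions without compound run in parallel.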

[3] = tested on: wild-type HAdV5; test: Nuclear-associated HAdV genomes (real-time PCR)
Protocol: (§1) Nuclear-Associated HAdV Genomes. The nuclear delivery of HAdV genomes was assessed by real-time PCR following nuclear isolation from infected cells. […] Forty-five minutes after infection, A549 cells were trypsinized and collected and then washed twice with PBS. Then, cytoplasmic and nuclear fractions were separated using a hypotonic buffer solution and NP-40 detergent. The cell pellet was resuspended in 500 μL of 1×hypotonic buffer (20 mM Tris-HCl pH 7.4, 10 mM NaCl, 3 mM MgCl2) and incubated for 15 min at 4° C. Then, 25 μL of NP-40 was added and the samples were vortexed. The homogenates were centrifuged for 10 min at 835 g at 4° C. Following the removal of the cytoplasmic fraction (supernatant), HAdV DNA was isolated from the nuclear fraction (pellet) and from the cytoplasmic fraction using the QIAamp DNA Mini Kit (QIAGEN, Valencia, Calif.).
as §1, with “E.Z.N.A.® Tissue” for “QIAamp”, “DNA” for “DNA Mini”, “(Omega Bio-tek, Norcross, Ga.).” for “(QIAGEN, Valencia, Calif.).”

[4] = tested on: wild-type HAdV5; test: HAdV DNA quantification by real-time PCR (DNA replication); conditions: 24 h
Protocol: DNA Quantification by Real-Time PCR. […] Infected cells were incubated 24 h at 37° C. in 500 μL of complete DMEM containing 25 μM of either compounds or the same volume of DMSO (positive control). All samples were done in duplicate. After 24 h of incubation at 37° C., DNA was purified from the cell lysate with the QIAamp DNA Mini Kit (QIAGEN, Valencia, Calif.) following the manufacturer's instructions. TaqMan primers and probes for a common region of the HAdV5 were designed with the GenScript Real-Time PCR (TaqMan) Primer Design software (GenScript). […] Real-time PCR mixtures consisted of 9.5 μL of the purified DNA, AQ1 and AQ2 at a concentration of 200 nM each and Probe at a concentration of 50 nM in a total volume of 25 μL. The PCR cycling protocol was 95° C. for 3 min followed by 40 cycles of 95° C. for 10 s and 60° C. for 30 s. Human glyceraldehyde-3-phosphate dehydrogenase (GAPDH) gene was used as internal control. Oligonucleotides sequences for GAPDH and conditions were those previously reported by Henke-Gendo et al. (2012).
For quantification, gene fragments from hexon, and GAPDH were cloned into the pGEM-T Easy vector (Promega) and known concentrations of template were used to generate a standard curve in parallel for each experiment. All assays were performed in thermal cycler LightCycler® 96 System (Roche).
(§2) HAdV DNA Quantification by Real-Time PCR. […] All samples were done in duplicate. After 24 h of incubation at 37° C., DNA was purified from the cell lysate with the E.Z.N.A.® Tissue DNA Kit (Omega Bio-tek, Norcross, Ga.) following the manufacturer's instructions. TaqMan primers and probes for a common region of the HAdV5 were designed with the GenScript Real-Time PCR (TaqMan) Primer Design software (GenScript). […] Real-time PCR mixtures consisted of 9.5 μL of the purified DNA, AQ1 and AQ2 at a concentration of 200 nM each and Probe at a concentration of 50 nM in a total volume of 25 μL. The PCR cycling protocol was 95° C. for 3 min followed by 40 cycles of 95° C. for 10 s and 60° C. for 30 s. Human glyceraldehyde-3-phosphate dehydrogenase (GAPDH) gene was used as internal control. Oligonucleotides sequences for GAPDH and conditions were those previously reported by Henke-Gendo et al. (2012).
as §2, with “DNA” for “HAdV DNA”

[5] = A549, read-out: IC50 Entry Assay (μM), HAdV5-GFP, high MOI, A549 cell line
[6] = FIG. 3, 45 min post infection, concentrations by CC50 (2-50 μM)
[7] = FIG. 4, concentrations by CC50 (2-50 μM)

Row | SMILES | Selectivity index (SI) [1] | inhibition at 10 µM [1] [%] | IC50 [1] [µM] | inhibition at 50 µM ([2]; A549, 48 h) [%] | IC50 [2, 5] [µM] | amount of nuclear-associated HAdV genomes versus DMSO [3, 6] | inhibition of HAdV-5 DNA replication (qPCR) [4, 7] | IC50 ([2]; {}) [µM] | amount of nuclear-associated HAdV genomes versus DMSO ([3]; FIG. 5A, 45 min post-infection, 10-fold plaque IC50) | inhibition of HAdV-5 DNA replication (qPCR) ([4]; FIG. 6A, 10-fold plaque IC50) | EC50 ([1]; read-out: EC50 (plaque assay)) [µM] | EC50 ([2]; A549, 48 h, read-out: EC50 (entry assay, as worded in text)) [µM] | inhibition of accessibility of HAdV DNA to the nucleus ([3]; FIG. 5B, 45 min post-infection, 10-fold plaque IC50) | inhibition at 7.8 µM ([4]; read-out: inhibition of HAdV-5 DNA replication (qPCR)) [%]
1 | O=C(Nc1ccc([N+](=O)[O-])cc1F)c1cc(Cl)ccc1O [Compound 11, 5-Chloro-N-(2-fluoro-4-nitrophenyl)-2-hydroxybenzamide] | 218.2 | 98.7 ± 1.9 | 0.05 | 92.4 ± 0.2 | 1.57 ± 0.97 | partially inhibited | low inhibition |  |  |  |  |  |  | 
2 | O=C(Nc1cc(F)cc(C(F)(F)F)c1)c1cc(Cl)ccc1O [Compound 17, 5-Chloro-N-(3-fluoro-5-(trifluoromethyl)phenyl)-2-hydroxybenzamide] | 666.7 | 100 |  | 100 | 2.23 ± 0.58 | no significant differences | low inhibition |  |  |  |  |  |  | 
3 | CC(C)[C@H](NC(=O)c1cc(Cl)ccc1O)C(=O)Nc1ccc([N+](=O)[O-])cc1Cl [Compound 58, (S)-5-Chloro-N-(1-((2-chloro-4-nitrophenyl)amino)-3-methyl-1-oxobutan-2-yl)-2-hydroxybenzamide] | 444.4 | 100 |  | 81.8 | 11.2 | no significant differences | low inhibition |  |  |  |  |  |  | 
4 | O=C(N[C@H](Cc1ccccc1)C(=O)Nc1ccc([N+](=O)[O-])cc1Cl)c1cc(Cl)ccc1O [Compound 60, (R)-5-Chloro-N-(1-((2-chloro-4-nitrophenyl)amino)-1-oxo-3-phenylpropan-2-yl)-2-hydroxybenzamide] | 259.7 | 100 | 0.3 | 68.6 | 9.7 | partially inhibited | significant (p≤0.0001) inhibitory activity |  |  |  |  |  |  | 
5 | CC1(Nc2ccc(NC(=O)c3cc(Cl)ccc3O)c(Cl)c2)CCCC1 [Compound 87, 5-Chloro-N-(2-chloro-4-((1-methylcyclopentyl)amino)phenyl)-2-hydroxybenzamide] | 580.7 | 100 | 0.27 | 85.4 | 15.2 to 30.8 |  |  | 15.2 ± 5.1 | partially inhibited | moderate inhibition |  |  |  | 
6 | O=C(NCC1CCCCC1)c1cc(Cl)ccc1O [Compound 161, 5-Chloro-N-(cyclohexylmethyl)-2-hydroxybenzamide] | > 100 | 100 |  | 98.6 ± 14.8 | 12.3 ± 4.8 |  |  |  |  |  | 0.78 | 12.3 | more than 99% | 50
